Test results from PubChem BioAssay AID1259407 (Chemical Carcinogenesis Research Information System (CCRIS), 2018).
Calls of active or inactive are those of the source. No rule for the calls is given here.

Test system: CCRIS mutagenicity, Ames/micronucleus/aberration tests
Assay: CCRIS mutagenicity studies

CCCCOC(=O)[C@@H](C)Oc1ccc(Oc2ccc(C#N)cc2F)cc1
mutagenic call (End Point: In vitro chromosomal aberrations, Test System: Chinese hamster lung (CHL) cells, Metabolic Activation: None): active; positive (ploidy)
mutagenic call (End Point: In vitro chromosomal aberrations, Test System: Chinese hamster lung (CHL) cells, Metabolic Activation: Rat, liver, S-9, Aroclor 1254): inactive; negative
mutagenic call (End Point: In vivo micronucleus, Test System: Bone marrow polychromatic erythgrocytes, Species: Mouse, Strain/Sex: ICR (Crj:CD-1)/ Female, Route: Oral (Gavage)): inactive; negative
mutagenic call (End Point: In vivo micronucleus, Test System: Bone marrow polychromatic erythgrocytes, Species: Mouse, Strain/Sex: ICR (Crj:CD-1)/ Male, Route: Oral (Gavage)): inactive; negative
mutagenic call (End Point: In vivo micronucleus, Test System: Bone marrow polychromatic erythrocytes, Species: Mouse, Strain/Sex: ICR (Crj:CD-1)/ Female, Route: Oral (Gavage)): inactive; negative
mutagenic call (End Point: In vivo micronucleus, Test System: Bone marrow polychromatic erythrocytes, Species: Mouse, Strain/Sex: ICR (Crj:CD-1)/ Male, Route: Oral (Gavage)): inactive; negative
mutagenic call (Test System: Ames Salmonella typhimurium, Strain/Indicator: TA98, Metabolic Activation: None, Method: Plate incorporation): inactive; negative
mutagenic call (Test System: Ames Salmonella typhimurium, Strain/Indicator: TA98, Metabolic Activation: Rat, liver, S-9, Aroclor-1254, Method: Plate incorporation): inactive; negative
mutagenic call (Test System: Ames Salmonella typhimurium, Strain/Indicator: TA100, Metabolic Activation: None, Method: Plate incorporation): inactive; negative
mutagenic call (Test System: Ames Salmonella typhimurium, Strain/Indicator: TA100, Metabolic Activation: Rat, liver, S-9, Aroclor-1254, Method: Plate incorporation): inactive; negative
mutagenic call (Test System: Ames Salmonella typhimurium, Strain/Indicator: TA1535, Metabolic Activation: None, Method: Plate incorporation): inactive; negative
mutagenic call (Test System: Ames Salmonella typhimurium, Strain/Indicator: TA1535, Metabolic Activation: Rat, liver, S-9, Aroclor-1254, Method: Plate incorporation): inactive; negative
mutagenic call (Test System: Ames Salmonella typhimurium, Strain/Indicator: TA1537, Metabolic Activation: None, Method: Plate incorporation): inactive; negative
mutagenic call (Test System: Ames Salmonella typhimurium, Strain/Indicator: TA1537, Metabolic Activation: Rat, liver, S-9, Aroclor-1254, Method: Plate incorporation): inactive; negative
mutagenic call (Test System: E. coli, Strain/Indicator: WP2 uvrA, Metabolic Activation: None, Method: Standard plate): inactive; negative
mutagenic call (Test System: E. coli, Strain/Indicator: WP2 uvrA, Metabolic Activation: Rat, liver, S-9, Aroclor-1254, Method: Standard plate): inactive; negative
mutagenic call (Test System: Mouse lymphoma, Strain/Indicator: L5178Y cells (TK+/TK-), Metabolic Activation: None, Method: Suspension/plate): inactive; negative
mutagenic call (Test System: Mouse lymphoma, Strain/Indicator: L5178Y cells (TK+/TK-), Metabolic Activation: Rat, liver, S-9, Aroclor-1254, Method: Suspension/plate): inactive; negative

O=c1ccc(=O)c2c(=O)c(Cl)c(Cl)c(=O)c1=2
mutagenic call (Test System: AMES SALMONELLA TYPHIMURIUM, Strain/Indicator: TA97, Metabolic Activation: NONE, Method: PREINCUBATION): inactive; negative
mutagenic call (Test System: AMES SALMONELLA TYPHIMURIUM, Strain/Indicator: TA97, Metabolic Activation: RAT, LIVER, S-9, PHENOBARBITAL AND 5,6-BENZOFLAVONE, Method: PREINCUBATION): active; positive
mutagenic call (Test System: AMES SALMONELLA TYPHIMURIUM, Strain/Indicator: TA98, Metabolic Activation: NONE, Method: PREINCUBATION): inactive; negative
mutagenic call (Test System: AMES SALMONELLA TYPHIMURIUM, Strain/Indicator: TA98, Metabolic Activation: RAT, LIVER, S-9, PHENOBARBITAL AND 5,6-BENZOFLAVONE, Method: PREINCUBATION): inactive; negative
mutagenic call (Test System: AMES SALMONELLA TYPHIMURIUM, Strain/Indicator: TA100, Metabolic Activation: NONE, Method: PREINCUBATION): inactive; negative
mutagenic call (Test System: AMES SALMONELLA TYPHIMURIUM, Strain/Indicator: TA100, Metabolic Activation: RAT, LIVER, S-9, PHENOBARBITAL AND 5,6-BENZOFLAVONE, Method: PREINCUBATION): inactive; negative
mutagenic call (Test System: AMES SALMONELLA TYPHIMURIUM, Strain/Indicator: TA102, Metabolic Activation: NONE, Method: PREINCUBATION): active; positive
mutagenic call (Test System: AMES SALMONELLA TYPHIMURIUM, Strain/Indicator: TA102, Metabolic Activation: RAT, LIVER, S-9, PHENOBARBITAL AND 5,6-BENZOFLAVONE, Method: PREINCUBATION): active; positive
mutagenic call (Test System: AMES SALMONELLA TYPHIMURIUM, Strain/Indicator: TA104, Metabolic Activation: NONE, Method: PREINCUBATION): active; positive
mutagenic call (Test System: AMES SALMONELLA TYPHIMURIUM, Strain/Indicator: TA104, Metabolic Activation: RAT, LIVER, S-9, PHENOBARBITAL AND 5,6-BENZOFLAVONE, Method: PREINCUBATION): active; positive
mutagenic call (Test System: AMES SALMONELLA TYPHIMURIUM, Strain/Indicator: TA1535, Metabolic Activation: NONE, Method: PREINCUBATION): inactive; negative
mutagenic call (Test System: AMES SALMONELLA TYPHIMURIUM, Strain/Indicator: TA1535, Metabolic Activation: RAT, LIVER, S-9, PHENOBARBITAL AND 5,6-BENZOFLAVONE, Method: PREINCUBATION): inactive; negative
mutagenic call (Test System: AMES SALMONELLA TYPHIMURIUM, Strain/Indicator: TA1537, Metabolic Activation: NONE, Method: PREINCUBATION): inactive; negative
mutagenic call (Test System: AMES SALMONELLA TYPHIMURIUM, Strain/Indicator: TA1537, Metabolic Activation: RAT, LIVER, S-9, PHENOBARBITAL AND 5,6-BENZOFLAVONE, Method: PREINCUBATION): inactive; negative
mutagenic call (Test System: AMES SALMONELLA TYPHIMURIUM, Strain/Indicator: TA1538, Metabolic Activation: NONE, Method: PREINCUBATION): inactive; negative
mutagenic call (Test System: AMES SALMONELLA TYPHIMURIUM, Strain/Indicator: TA1538, Metabolic Activation: RAT, LIVER, S-9, PHENOBARBITAL AND 5,6-BENZOFLAVONE, Method: PREINCUBATION): inactive; negative
mutagenic call (Test System: AMES SALMONELLA TYPHIMURIUM, Strain/Indicator: TA2637, Metabolic Activation: NONE, Method: PREINCUBATION): active; positive
mutagenic call (Test System: AMES SALMONELLA TYPHIMURIUM, Strain/Indicator: TA2637, Metabolic Activation: RAT, LIVER, S-9, PHENOBARBITAL AND 5,6-BENZOFLAVONE, Method: PREINCUBATION): active; positive

CN1CCN=N1
mutagenic call (Test System: AMES SALMONELLA TYPHIMURIUM, Strain/Indicator: TA1535, Metabolic Activation: NONE, Method: STANDARD PLATE): active; positive
